Assay results reported in patent US12152038B2, “Vasopressin receptor antagonists and products and methods related thereto” (Neumora Therapeutics, Inc., priority 2017, dated 2024).

Assays:
[1] = Wild-type MDCK permeability and efflux assay (Papp, efflux ratio); type: in vitro ADME; conditions: dog, pH 7.4, wild-type MDCK cells; for efflux ratio at 1 h, 10 μM: Papp B>A/Papp A>B, read-out: ER WT (Efflux Ratio)
Protocol: (§1) The MDR1-MDCK effective efflux assay was performed as described in the BioFocus Standard Operating Procedure, ADME-SOP-56. Both wild-type (WT) and MDR1-MDCK cells (Solvo Biotechnology) were seeded onto 24-well Transwell plates at 2.35×10^5 cells per well and used in confluent monolayers after a 3 day culture at 37° C. under 5% CO2. For both cell types, test and control compounds (propranolol, vinblastine) were added (10 μM, 0.1% DMSO final, n=2) to donor compartments of the Transwell plate assembly in assay buffer (Hanks balanced salt solution supplemented with 25 mM HEPES, adjusted to pH 7.4) for both apical to basolateral (A>B) and basolateral to apical (B>A) measurements. Incubations were performed at 37° C., with samples removed from both donor and acceptor chambers at T=0 and 1 hour and compound analysed by mass spectrometry (LC-MS/MS) including an analytical internal standard.
(§2) Apparent permeability (Papp) values were determined from the relationship: Papp=[CompoundAcceptor T=end]×V Acceptor/([Compound Donor T=0]×V Donor)/incubation time×V Donor/Area×60×10^−6 cm/s
(§3) In this equation, V is the volume of each Transwell compartment (apical 125 μL, basolateral 600 μL), and concentrations are the relative MS responses for compound (normalized to internal standard) in the donor chamber before incubation and acceptor chamber at the end of the incubation, and Area is the area of cells exposed for drug transfer (0.33 cm^2).
(§4) Efflux ratios (Papp B>A/Papp A>B) were calculated for each compound from the mean Papp values in each direction for both wild-type and MDR1-MDCK cells.
(§5) In order to confirm the involvement of MDR1 in any efflux seen, an “effective efflux ratio” (EER) was calculated by comparing compound efflux ratios (ER) in the two cell types by the following equation: EER=ER(MDR1-MDCK)/ER(wild-type MDCK)
(§6) This ratio illustrates the effect of the over-expressed MDR1 normalised for the background movement of compound through the wild-type cells.
(§7) Lucifer Yellow (LY) was added to the apical buffer in all wells to assess viability of the cell layer. […] Recoveries<50% indicates compound solubility, stability or binding issues, thereby reducing the reliability of a result.
(§8) The inherent ability of a potential drug molecule to penetrate the blood brain barrier and avoid efflux by transporters expressed in the brain, can be roughly correlated with the Papp(A-B) and the efflux ratio (as defined above), respectively. A potential drug molecule with an apparent permeability<7 (10^−6 cm/sec) has low permeability (+), >7 (10^−6 cm/sec) but <10 (10^−6 cm/sec) has moderate permeability (++), >10 (10^−6 cm/sec) but <20 (10^−6 cm/sec) has good permeability (+++), and >20 (10^−6 cm/sec) is highly permeable (++++). High permeability in the WT and MDCK II cell permeability assay increases the probability of blood brain barrier penetration and access to the CNS. A potential drug molecule in the above assay system with an efflux ratio or effective efflux ratio of <1 has low probability of being an efflux substrate (++++), >1 but <2 has moderate probability of being an efflux substrate (+++), >2 but <3 has has an increased probability of being an efflux substrate (++), and >3 has a high probability of being an efflux substrate (+). If a potential drug molecule is an efflux substrate, the molecule will have a low probability of reaching exposures in the brain (site of action) that will result in efficacious levels of receptor occupancy.

[2] = test system: wild-type (WT) MDCK cells; assay: as above; type: in vitro ADME; conditions: for Papp AB WT: A->B; for ER WT (Efflux Ratio): Papp B>A/Papp A>B
Protocol: as §1, §2, §3, §4, §5, §6, §7, §8

Row | SMILES | Papp A→B at 1 h, 10 μM [1] [nm/s] | efflux ratio at 1 h, 10 μM [1] | Papp AB WT [2] | ER WT (Efflux Ratio) [2]
1 | CC1COc2cc(F)ccc2N1C(=O)N1CC2(C1)CN(c1noc3ccccc13)C2 (single isomer, unassigned) [4-3-B] | > 200 | < 1 |  | 
2 | CC1COc2cc(Cl)ccc2N1C(=O)N1CC2(C1)CN(c1cccnn1)C2 (single isomer, unassigned) [9-1-B] | > 200 | 1 to 2 |  | 
3 | CC1COc2cc(F)ccc2N1C(=O)N1CC2(C1)CN(c1ccc(F)cn1)C2 (single isomer, unassigned) [12-1-B] |  |  | ++++ (>20 (10^−6 cm/sec) is highly permeable (++++)) | ++++ (efflux ratio or effective efflux ratio of <1 has low probability of being an efflux substrate (++++))
4 | O=C(N1CC2(C1)CN(c1ccc(F)cn1)C2)N1CCC(O)c2cc(Cl)ccc21 (single isomer, unassigned) [13-1-A] | > 200 | < 1 |  | 
5 | O=C(N1CC2(C1)CN(c1ccccn1)C2)N1CCC(O)c2cc(Cl)ccc21 (single isomer, unassigned) [13-2-B] | > 200 | 1 to 2 |  | 
6 | CC1COc2cc(Cl)ccc2N1C(=O)N1CC2(C1)CN(c1noc3cccnc13)C2 (single isomer, unassigned) [18-3-B] | > 200 | < 1 |  | 
7 | CC1COc2cc(F)c(F)cc2N1C(=O)N1CC2(C1)CN(c1ncccn1)C2 (single isomer, unassigned) [19-1-B] | > 200 | 1 to 2 |  | 
8 | CC1COc2cc(Cl)c(F)cc2N1C(=O)N1CC2(C1)CN(c1ncccn1)C2 (single isomer, unassigned) [19-2-B] | > 200 | 1 to 2 |  | 
9 | CC1COc2cc(Cl)c(F)cc2N1C(=O)N1CC2(C1)CN(c1cccnn1)C2 (single isomer, unassigned) [19-4-A] | > 200 | 1 to 2 |  | 
10 | Cc1cncc(N2CC3(CN(C(=O)N4c5ccc(F)cc5OCC4C)C3)C2)n1 (single isomer, unassigned) [20-2-A] | > 200 | < 1 |  | 
11 | Cc1cncc(N2CC3(CN(C(=O)N4c5ccc(F)cc5OCC4C)C3)C2)n1 (single isomer, unassigned) [20-2-B] |  |  | ++++ (>20 (10^−6 cm/sec) is highly permeable (++++)) | ++++ (efflux ratio or effective efflux ratio of <1 has low probability of being an efflux substrate (++++))
12 | CC1COc2cc(F)ccc2N1C(=O)N1CC2(C1)CN(c1cc(C#N)ccn1)C2 (single isomer, unassigned) [20-3-B] | > 200 | < 1 |  | 
13 | Cc1ccnc(N2CC3(CN(C(=O)N4c5ccc(F)cc5OCC4C)C3)C2)c1 (single isomer, unassigned) [20-4-B] | > 200 | < 1 |  | 
14 | CC1COc2cc(Cl)ccc2N1C(=O)N1CC2(C1)CN(c1cc(C#N)ccn1)C2 (single isomer, unassigned) [20-6-B] |  |  | ++++ (>20 (10^−6 cm/sec) is highly permeable (++++)) | ++++ (efflux ratio or effective efflux ratio of <1 has low probability of being an efflux substrate (++++))
15 | Cc1nc(N2CC3(CN(C(=O)N4c5ccc(Cl)cc5OCC4C)C3)C2)ncc1F (single isomer, unassigned) [20-7-B] |  |  | ++++ (>20 (10^−6 cm/sec) is highly permeable (++++)) | ++++ (efflux ratio or effective efflux ratio of <1 has low probability of being an efflux substrate (++++))
16 | COc1ccnc(N2CC3(CN(C(=O)N4c5ccc(Cl)cc5OCC4C)C3)C2)c1 (single isomer, unassigned) [20-8-B] | > 200 | < 1 |  | 
17 | COc1ccnc(N2CC3(CN(C(=O)N4c5ccc(Cl)cc5OCC4C)C3)C2)n1 (single isomer, unassigned) [20-9-B] | > 200 | < 1 |  | 
18 | Cc1nccnc1N1CC2(CN(C(=O)N3c4ccc(Cl)cc4OCC3C)C2)C1 (single isomer, unassigned) [20-10-A] | > 200 | < 1 |  | 
19 | Cc1ccnc(N2CC3(CN(C(=O)N4c5ccc(Cl)cc5OCC4C)C3)C2)n1 (single isomer, unassigned) [20-12-B] | > 200 | < 1 |  | 
20 | CC1COc2cc(F)ccc2N1C(=O)N1CC2(C1)CN(c1noc3ccccc13)C2 (centres unmarked) [4-3] | > 200 | < 1 |  | 
21 | O=C(N1CC2(C1)CN(c1ccccn1)C2)N1CCOc2cc(Cl)ccc21 [8-2] | > 200 | < 1 |  | 
22 | O=C(N1CC2(C1)CN(c1cnccn1)C2)N1CCOc2cc(Cl)ccc21 [8-3] | > 200 | < 1 |  | 
23 | O=C(N1CC2(C1)CN(c1ccc(F)cn1)C2)N1CCOCc2cc(Cl)ccc21 [8-4] | > 200 | 1 to 2 |  | 
24 | O=C(N1CC2(C1)CN(c1ccc(F)cn1)C2)N1CCc2cc(Cl)ccc21 [8-11] | > 200 | < 1 |  | 
25 | O=C(N1CC2(C1)CN(c1ccccn1)C2)N1CCOCc2cc(Cl)ccc21 [8-12] | > 200 | < 1 |  | 
26 | O=C(N1CC2(C1)CN(c1cnccn1)C2)N1CCc2cc(Cl)ccc21 [8-14] | > 200 | 1 to 2 |  | 

Second part, led by results:

Row | Papp A→B at 1 h, 10 μM [1] [nm/s] | efflux ratio at 1 h, 10 μM [1] | SMILES | Papp AB WT [2] | ER WT (Efflux Ratio) [2]
27 | > 200 | < 1 | O=C(N1CC2(C1)CN(c1ccc(F)cn1)C2)N1CCOc2cc(Cl)ccc21 [9-7] |  | 
28 | > 200 | < 1 | O=C(N1CC2(C1)CN(c1ccc(F)cn1)C2)N1CCC(O)c2cc(Cl)ccc21 (centres unmarked) [13-1, (6-chloro-4-hydroxy-3,4-dihydroquinolin-1(2H)-yl)(6-(5-fluoropyridin-2-yl)-2,6-diazaspiro[3.3]heptan-2-yl)methanone] |  | 
29 | > 200 | < 1 | O=C(N1CC2(C1)CN(c1ccc(F)cn1)C2)N1CCC(F)(F)c2cc(Cl)ccc21 [17-1, (6-chloro-4,4-difluoro-3,4-dihydroquinolin-1(2H)-yl)(6-(5-fluoropyridin-2-yl)-2,6-diazaspiro[3.3]heptan-2-yl)methanone] |  | 
30 | > 200 | < 1 | CC1COc2cc(Cl)ccc2N1C(=O)N1CC2(C1)CN(c1noc3cccnc13)C2 (centres unmarked) [18-3] |  | 
31 | > 200 | < 1 | CC1COc2cc(Cl)c(F)cc2N1C(=O)N1CC2(C1)CN(c1cccnn1)C2 (centres unmarked) [19-4] |  | 
32 | > 200 | < 1 | CC1COc2cc(F)c(F)cc2N1C(=O)N1CC2(C1)CN(c1ccc(F)cn1)C2 (centres unmarked) [19-5] |  | 
33 | > 200 | 1 to 2 | Cc1cncc(N2CC3(CN(C(=O)N4c5ccc(F)cc5OCC4C)C3)C2)n1 (centres unmarked) [20-2] |  | 
34 | > 200 | < 1 | COc1ccnc(N2CC3(CN(C(=O)N4c5ccc(Cl)cc5OCC4C)C3)C2)c1 (centres unmarked) [20-8] |  | 
35 | > 200 | < 1 | COc1ccnc(N2CC3(CN(C(=O)N4c5ccc(Cl)cc5OCC4C)C3)C2)n1 (centres unmarked) [20-9] |  | 
36 | > 200 | < 1 | Cc1nccnc1N1CC2(CN(C(=O)N3c4ccc(Cl)cc4OCC3C)C2)C1 (centres unmarked) [20-10] |  | 
37 | > 200 | < 1 | Cc1ccnc(N2CC3(CN(C(=O)N4c5ccc(Cl)cc5OCC4C)C3)C2)c1 (centres unmarked) [20-11] |  | 
